≈ marks a conversion by molar mass, not a printed value. Entries after “also recorded” stand apart in the source; their conditions may differ. Counter-ions that a name gives are not always drawn. Like-named read-outs stand apart in the source and are kept apart here.
Assays:
[1] = Stability study in buffers at various pH; assay type: physicochemical
physchem [2] = assay: physchem
Experimental: (§1) To 1 mL of this solution, 1 mL of octanol-1 (B) saturated with 0.02 M phosphate buffer solution (A) was added. The resultant mixture was shaken and centrifuged; three samples from each phase was collected and analyzed by HPLC, as shown in Table 10. […]
as §1, with “The solution was then saturated with octanol-1 (B). To” for “To”, “11.” for “10.”

[3] = Log P' study, MilliQ water / octanol-1; assay type: physicochemical; details: for P' (B/A'): MilliQ water pH 6.5 (A') / octanol-1 (B), Study 1 and Study 2
in vivo [4] = assay: in vivo; design: species or system cynomologus monkeys (macaca fascicularis); details: cynomolgus monkey
Description: The drug was quantitated in plasma and urine with a liquid chromatography-mass spectrometry (LC-MS) technique.

[5] = Oral bioavailability of L-dC via dival-L-dC (HPLC); details: cynomolgus monkey
Description: The drug was quantitated in plasma and in urine using HPLC analysis.

in vivo [6] = details: rat, po
in vivo [7] = details: monkey
Description: […]. […] Clinical observations were documented daily. Blood samples for hematology and serum chemistries were collected and body weight measured before treatment on Days 1, 4, 7, 10, and 14, and before necropsy on Day 17. After completion of Day 17 evaluations, all animals were euthanized and a complete necropsy performed, including macroscopic examination and comprehensive tissue collection.

in vivo [8] = details: rat
Experimental: Clinical observations were documented once daily. Body weights were documented before dosing on Days 1, 8, 15, 22, and 28 and before necropsy on Day 29. Food consumption was documented weekly. Blood samples for hematology and serum chemistries also were collected before necropsy on Day 29.
Toxicokinetics. An additional 54 animals (27 males and 27 females) had samples collected for pharmacokinetic analyses on Days 1 and 28. […] Analysis of the 500 mg/kg group is in progress.

in vivo [9] = details: monkey, po
in vivo [10] = details: monkey, po; remark: listed apart in the source
in vitro [11] = details: human, plasma
in vitro [12] = details: human, plasma; remark: listed apart in the source
[13] = monkey, in vivo
physchem [14] = details: water
HBV [15] = details: human, 2.2.15 cells
HBV [16] = assay: Antiviral activity against HBV in 2.2.15 cells (reduction of HBV DNA)
[17] = monkey, in vivo; remark: listed apart in the source
[18] = rhesus monkey, in vivo, po
in vitro [19] = details: human, hepg2 cells
Description: (§2) These studies included analysis of lactic acid production, mtDNA content and determination of changes in morphology (e.g., loss of cristae, matrix dissolution and swelling, and lipid droplet formation) of mitochondrial ultrastructure.

HepG2 cells = assay: in vitro
Description: as §2

VZV = assay: Antiviral panel: VZV in HFF; assay type: cell-based
EBV = assay: Antiviral panel: EBV in Daudi; assay type: cell-based
WHV [20] = assay: Woodchuck model of chronic hepatitis B infection, 28 days; assay type: in vivo, woodchucks
WHV [21] = assay: Woodchuck model, twelve-week study; assay type: in vivo, woodchucks; details: 1 mg/kg/day
Experimental: WHV DNA levels were determined by quantitative PCR.

[22] = tested on: Salmonella typhimurium strains TA98, TA100, TA1535, and TA1537 and escherichia coli strain WP2uvrA; assay: S. typhimurium and E. coli plate incorporation mutation assay; assay type: cell-based
Experimental: L-dC was tested for its potential to cause mutation at the histidine operon of Salmonella typhimurium strains TA98, TA100, TA1535, and TA1537 and at the tryptophan opeton of escherichia coli strain WP2uvrA. L-dC at concentrations of […] plus positive and negative controls were tested. […] After incubation for approximately 68 hours, L-dC and controls were evaluated for the number of revertants per plate and integrity of the background microcolony lawn.

HIV-1 = details: read-out: EC50 HIV-1 (PBMC)
2.2.15 = assay: Cytotoxicity in 2.2.15 cells
[23] = target: virion-associated DNA polymerase of WHV; assay: Endogenous polymerase assay, virion-associated DNA polymerase; assay type: biochemical
Rats Primary Hepatocytes = assay: Intracellular metabolism of L-dC in rat primary hepatocytes; details: 10 µM L-dC, 24 hours
[24] = tested on: Monkey Primary Hepatocytes; assay: Intracellular metabolism of L-dC in monkey primary hepatocytes; details: 10 µM L-dC, 24 hours, n=1
[25] = 0.02 m phosphate buffer, pH 7.2

In the case of `CC(=O)Nc1ccn([C@@H]2C[C@@H](O)[C@H](CO)O2)c(=O)n1` [N^4-acetyl-L-dC, N^4-Acetyl-2'-deoxy-β-L-cytidine], the half-life ([1]; pH 1.2, read-out: half-life) is reported as 0.833 h.

Work on `CC(C)[C@H](N)C(=O)OC[C@@H]1O[C@H](n2ccc(N)nc2=O)C[C@H]1OC(=O)[C@@H](N)C(C)C` [3'5'-dival-L-dC, 3,5'-L-Valine ester of 2'-deoxy-β-L-cytidine hydrochloride] yielded a logD (physchem [2]; [25]) of -0.86, a degraded (physchem [2]; octanol-1, pH 7.2) of 14% and a degraded (physchem [2]; phosphate buffer, pH 7.2) of 50%. For the same compound, the “P' (B/A')” value [3] was 1.80 x10^-3, the “P' (B/A')” value ([3]; listed as L-dC-3',5'-divalinyl ester hydrochloride, hydrochloride) was 1.77 x 10^-3 and the “conversion to the monoesters or L-dC during log P' experiment” value ([3]; aqueous or organic phases, MilliQ water) was “No conversion”. For the same compound, the “share of drug excreted in the urine (total recovered dose)” value (shortened to “share … (total recovered dose)”) (in vivo [4]; iv) was “approximately 0.15%”, the “share … (total recovered dose)” value (in vivo [4]; po) was “No dival-L-dC was detected” and the dose excreted at 8 h ([5]; urine, 10 mg/kg) was about 26%. For the same compound, the dose excreted at 72 h ([5]; urine, 10 mg/kg) was 31%, the NOAEL at 360 h (in vivo [6]) was 2000 mg/kg and the “RBC, HGB and HCT lower at Day 17 compared to Day 1” value (in vivo [7]) was 15-27%. For the same compound, the “decrease of BUN at Day 17 compared to Day 1” value (in vivo [7]) was about 43%, the NOAEL (in vivo [7]; po) was 2000 mg/kg and the NOAEL at […] (in vivo [8]; po) was under 500 mg/kg. The Fa (in vivo [9]) was about 73%, the bioavailability (in vivo [9]) was 72.7 ± 22% and the NOAEL at 600 h (in vivo [10]) was under 500 mg/kg. For the same compound, the half-life (in vitro [11]) was about 0.65 h and the fraction unbound (in vitro [12]) was 0.867.

In the case of `CC(C)[C@H](N)C(=O)OC[C@@H]1O[C@H](n2ccc(N)nc2=O)C[C@H]1O` [5'-val-L-dC, 5'-L-valine ester of 2'-deoxy-β-L-cytidine hydrochloride], the “share … (total recovered dose)” value (in vivo [4]; iv) is reported as about 3.7%, the concentration at 2 h (in vivo [4]; iv, 10 mg/kg) is reported as 80 nM and the “share … (total recovered dose)” value (in vivo [4]; po) is reported as about 0.2%. The “AUClast higher for females than males” value (in vivo [8]) was 25-50%, the “AUClast higher on Day 28 vs. Day 1” value (in vivo [8]) was 30-62% and the Tmax (in vivo [8]; po) was 1 to 2 h. The “Tlast (median)” value [13] was 10 h, the “median Tmax” value ([13]; po) was 1 h and the bioavailability (in vivo [9]) was 39 ± 11.4%.

In the case of `CC(=O)OC[C@@H]1O[C@H](n2ccc(N)nc2=O)C[C@H]1OC(C)=O` [3'5'-diacetyl-L-dC, 3',5'-Di-O-acetyl-2'-deoxy-β-L-cytidine], the logD (physchem [2]; [25]) is reported as -0.74 and the bioavailability (in vivo [9]) is reported as 23 ± 6.5%.

Work on `CC(C)[C@H](N)C(=O)O[C@@H]1C[C@@H](n2ccc(N)nc2=O)O[C@H]1CO` [3'-val-L-dC, 3'-valinyl ester of β-L-deoxyribocytosine] yielded a logD (physchem [2]; 0.02 m phosphate buffer, pH 7.2, log P (octanol/water)) of -1.53, a half-life ([1]; 0.2m tris-hcl, pH 7.4) of 7 h and a half-life ([1]; pH 1.2 (135 mM KCl-HCl buffer solution), read-out: half-life) of over 48 h. For the same compound, the bioavailability (in vivo [9]) was 85.1 ± 24.5% and the solubility (physchem [14]) was over 408 mg/mL.

With `Cc1cn([C@@H]2C[C@@H](O)[C@H](CO)O2)c(=O)[nH]c1=O` [L-dT, β-L-2'-deoxythymidine, reference compound] the “S.I. (CC50/EC90)” value (HBV [15]) was 2,518 and the EC90 (HBV [16]; 10-fold reduction of HBV virion DNA levels, combination study) was 1.2 ± 0.1 µM.

With `Nc1ccn([C@H]2C[C@H](O)[C@@H](CO)O2)c(=O)n1` [D-dC, D-Deoxycytidine] the “P(B/A)” value (physchem [2]; [25]) was 0.039 and the “log P (octanol/water)” value (physchem [2]; [25]) was -1.41.

With `O=c1ccn([C@@H]2C[C@@H](O)[C@H](CO)O2)c(=O)[nH]1` [L-dU, β-L-2'-deoxyuridine] the “share … (total recovered dose)” value (in vivo [4]; iv) was “approximately 2.5%”, the concentration (in vivo [4]; iv, 10 mg/kg) was 220 to 880 nM and the “share … (total recovered dose)” value (in vivo [4]; po) was “approximately 2.5%”. The concentration (in vivo [4]; po, 10 mg/kg, 8 h) was 390 nM, the “share of drug excreted in the urine (recovered dose)” value ([5]; in vivo) was “approximately 10%” and the “share of the dose recovered in the urine” value ([17]; iv, 10 mg/kg) was 4.0%. For the same compound, the “share … (total recovered dose)” value ([17]; po) was 29% and the “share … (total recovered dose)” value [18] was 23%.

With `Nc1ccn([C@H]2CC[C@@H](CO)O2)c(=O)n1` [ddC, zalcitabine] the activity (in vitro [19]) was 95 ± 4.4%, the activity at 336 h (in vitro [19]) was 13% and the inhibition at 336 h (in vitro [19]) was 87%. The “Lipid Droplet Formation” value (HepG2 cells) was “negative” and the “Mitochondrial Morphology” value (HepG2 cells) was “abnormal”.

In the case of `Nc1ccn([C@@H]2CS[C@H](CO)O2)c(=O)n1` [3TC, (-)-enantiomer of cis-2-hydroxymethyl-5-(cytosin-1-yl)-1,3-oxathiolane, reference compound], the “S.I. (CC50/EC90)” value (HBV [16]; 2.2.15 cells) is reported as > 5,000.

With `O=c1[nH]c(=O)n([C@@H]2O[C@H](CO)[C@@H](O)[C@@H]2F)cc1I` [FIAU, fialuridine] the activity (in vitro [19]) was 203%, the activity at 336 h (in vitro [19]) was 86% and the “Lipid Droplet Formation” value (HepG2 cells; Conc. (µM): L-dC 10, FIAU 10, ZDV 50, ddC 1) was “positive”. For the same compound, the “Mitochondrial Morphology” value (HepG2 cells; Conc. (µM): L-dC 10, FIAU 10, ZDV 50, ddC 1, electron microscopy) was “abnormal” and the “increase of lactic acid production compared to vehicle control” value (HepG2 cells; HepG2 cells) was 100%.

With `Nc1ccn([C@@H]2C[C@@H](O)[C@H](CO)O2)c(=O)n1` [L-dC, 2'-deoxy-β-L-cytidine] the “EC50 VZV (HFF)” value (VZV) was 18.6 µg/mL (≈ 0.0819 mM), the “EC50 EBV (Daudi)” value (EBV) was over 50 µg/mL and the body weight (WHV [20]; compared to control animals, 28 days 0.01-10 mg/kg/day) was “no weight loss”. For the same compound, the toxicity (WHV [20]; four-week treatment phase and eight-week follow-up, 0.01-10 mg/kg/day orally) was “no drug-related toxicity; also recorded: No toxicity was observed”, the toxicity (WHV [21]; 12-week treatment phase and 12-week follow-up) was “no drug-related toxicity” and the end-of-treatment liver biopsies (WHV [21]; 12 weeks) was “no histomorphological evidence of fatty changes (microvesicular steatosis); also recorded: no evidence of fatty change (microvesicular steatosis)”. The “Lipid Droplet Formation” value (HepG2 cells) was “negative”, the CC50 (HepG2 cells; HepG2 cells, after 14 days of treatment) was over 2000 µM and the mutagenicity ([22]; concentrations up to 5000 µg/plate) was “not mutagenic”. For the same compound, the mutagenicity ([22]; concentrations up to 5000 mg/plate, with and without rat liver S-9) was “no evidence of mutagenicity”, the EC50 (HIV-1) was over 200 µM and the AUC(0-t) ([17]; iv, 10 mg/kg) was 81.1 µM·h. It also gave an AUC(0-t) ([17]; po, 10 mg/kg) of 13.7 µM·h, a CC50 (2.2.15; 2.2.15) of over 2000 µM and a CC50 (2.2.15; 2.2.15 cells, 50% inhibition of neutral red dye uptake, combination study) of 3000 ± 96 µM. The “S.I. (CC50/EC90)” value (HBV [16]; 2.2.15 cells) was 2,727 and the “HBV replication returned to 50% of pretreatment levels” value (HBV [16]; viral rebound after drug withdrawal, 2.2.15 cells) was at most 18 day post-treatment.

In the case of `Nc1ccn([C@@H]2C[C@@H](O)[C@H](COP(=O)(O)OP(=O)(O)OP(=O)(O)O)O2)c(=O)n1` [L-dC-TP], the IC50 ([23]; endogenous polymerase assay, read-out: IC50 viral DNA pol (WHV DNA polymerase)) is reported as 1.82 ± 0.23 µM, the intracellular metabolite level (Rats Primary Hepatocytes) is reported as 14.2 ± 3.1 µM and the intracellular metabolite level [24] is reported as 39.3 µM.

For `O=c1ccn([C@@H]2C[C@@H](O)[C@H](COP(=O)(O)OP(=O)(O)OP(=O)(O)O)O2)c(=O)[nH]1` [L-dU-TP, β-L-2'-deoxyuridine 5'-triphosphate], the IC50 ([23]; target as printed, read-out: IC50 in vitro against hepatitis B virus DNA polymerase) was 5.26 µM, the intracellular metabolite level (Rats Primary Hepatocytes) was 46.9 ± 5.2 µM and the intracellular metabolite level [24] was 21.9 µM.

From patent EP1296995B1, “3'-PRODRUGS OF 2'-DEOXY-BETA-L-NUCLEOSIDES” (priority 2000, dated 2001)
